According to paper PMC7712541, “Seven New Cytotoxic and Antimicrobial Xanthoquinodins from Jugulospora vestita” (Journal of Fungi, 2020):
pIC50: −log10 of the molar value. Values after ≈ are worked out from the molar mass of the structure shown.

Legend:
[1] = tested on: Al. brassicicola, Co. gloeosporioides, Co. truncatum, Cu. lunata and Py. grisea; set-up: method as in PMID 29677644; conditions: cited from earlier work
Mucor hiemalis = experiment: MIC, antifungal test; format: cell-based; set-up: key to Minimum inhibitory concentration (MIC): –: no inhibition observed under test conditions
Experimental: (§1) Compounds were tested for their antimicrobial activity against […] fungi (Candida albicans, Mucor hiemails, Pichia anomala, Rhodotorula glutinis and Schizosaccharomyces pombe), four different Gram-positive bacteria (Bacillus subtilis, Micrococcus luteus, Mycobacterium smegmatis and Staphylococcus aureus), and three Gram-negative bacteria (Chromobacterium violaceum, Escherichia coli and Pseudomonas aeruginosa), using oxytetracycline as a positive control against Gram-positive and Gram-negative bacteria, while nystatin was used as an antifungal positive control. Besides, cytotoxicities of the compounds against seven mammalian cell lines (human endocervical adenocarcinoma KB 3.1, breast cancer MCF-7, lung cancer A549, ovary cancer SK-OV-3, prostate cancer PC-3, squamous cancer A431, and mouse fibroblasts L929) were determined by the microculture tetrazolium test (MTT) method, using epothilon B as the positive control. Both bioactivity assays were performed following our standard protocols.

Candida albicans = experiment: MIC, antifungal test; format: cell-based; set-up: key to Minimum inhibitory concentration (MIC): –: no inhibition observed under test conditions
Experimental: as §1

Pichia anomala = experiment: MIC, antifungal test; format: cell-based; set-up: key to Minimum inhibitory concentration (MIC): –: no inhibition observed under test conditions
Experimental: as §1

Rhodotorula glutinis = experiment: MIC, antifungal test; format: cell-based; set-up: key to Minimum inhibitory concentration (MIC): –: no inhibition observed under test conditions
Experimental: as §1

[2] = tested on: Schizosaccharomyces pombe; experiment: MIC, antifungal test; format: cell-based; set-up: key to Minimum inhibitory concentration (MIC): –: no inhibition observed under test conditions
Experimental: as §1

Micrococcus luteus = experiment: MIC, antibacterial test; format: cell-based; conditions: read-out: Minimum inhibitory concentration (MIC)
Experimental: as §1

Bacillus subtilis = experiment: MIC, antibacterial test; format: cell-based; conditions: read-out: Minimum inhibitory concentration (MIC)
Experimental: as §1

Staphylococcus aureus = experiment: MIC, antibacterial test; format: cell-based; conditions: read-out: Minimum inhibitory concentration (MIC)
Experimental: as §1

Mycobacterium smegmatis = experiment: MIC, antibacterial test; format: cell-based; set-up: key: –: no inhibition observed under test conditions
Experimental: as §1

Escherichia coli = experiment: MIC, antibacterial test; format: cell-based; set-up: key to Minimum inhibitory concentration (MIC): –: no inhibition observed under test conditions
Experimental: as §1

Pseudomonas aeruginosa = experiment: MIC, antibacterial test; format: cell-based; set-up: key to Minimum inhibitory concentration (MIC): –: no inhibition observed under test conditions
Experimental: as §1

[3] = tested on: Chromobacterium violaceum; experiment: MIC, antibacterial test; format: cell-based; set-up: key to Minimum inhibitory concentration (MIC): –: no inhibition observed under test conditions; conditions: read-out: Minimum inhibitory concentration (MIC)
Experimental: as §1

NCI-H187 and Vero = tested on: NCI-H187 and Vero; set-up: method as in PMID 29677644; conditions: cited from earlier work
Cytotoxicity, MTT method = experiment: Cytotoxicity, MTT method
Experimental: as §1

[4] = tested on: KB 3.1, L929, A549, SK-OV-3, PC-3, A431, and MCF-7 mammalian cell lines; experiment: Cytotoxicity, summary over all tested cell lines; format: cell-based; conditions: seven mammalian cell lines; read-out: IC50 values, range over all tested cell lines
Experimental: as §1

lung cancer A549 = experiment: Cytotoxicity, MTT method; conditions: read-out: Cytotoxicity, half maximal inhibitory concentration (IC50); A549, MTT
Experimental: as §1

[5] = tested on: human endocervical adenocarcinoma KB 3.1; experiment: Cytotoxicity, MTT method; conditions: read-out: Cytotoxicity, half maximal inhibitory concentration (IC50); KB 3.1, MTT
Experimental: as §1

[6] = tested on: MCF-7 human breast cancer cells; experiment: Cytotoxicity, MTT method; conditions: read-out: Cytotoxicity, half maximal inhibitory concentration (IC50); MCF-7, MTT
Experimental: as §1

prostate cancer PC-3 = experiment: Cytotoxicity, MTT method; conditions: read-out: Cytotoxicity, half maximal inhibitory concentration (IC50); PC-3, MTT
Experimental: as §1

mouse fibroblasts L929 = experiment: Cytotoxicity, MTT method; conditions: read-out: Cytotoxicity, half maximal inhibitory concentration (IC50); L929, MTT
Experimental: as §1

ovary cancer SK-OV-3 = experiment: Cytotoxicity, MTT method; conditions: read-out: Cytotoxicity, half maximal inhibitory concentration (IC50); SK-OV-3, MTT
Experimental: as §1

[7] = tested on: A431 human squamous cancer cells; experiment: Cytotoxicity, MTT method; conditions: read-out: Cytotoxicity, half maximal inhibitory concentration (IC50); A431, MTT
Experimental: as §1

[8] = tested on: PC-3 prostate cancer cells; set-up: method as in PMID 31433962; conditions: cited from earlier work

## COC(=O)[C@]12Oc3c(c(O)cc4c3[C@@H]3C=C[C@]5(C4)C(=C(O)c4c(O)cc(C)cc4[C@@H]5O)C3=O)C(=O)C1=C(O)CC[C@@H]2O [Compound 8, Xanthoquinodin B4]
[1]
  Antifungal effects (in words): significant antifungal effects
Mucor hiemalis
  Minimum inhibitory concentration (MIC): –
Candida albicans
  Minimum inhibitory concentration (MIC): –
Pichia anomala
  Minimum inhibitory concentration (MIC): –
Rhodotorula glutinis
  Minimum inhibitory concentration (MIC): –
[2]
  Minimum inhibitory concentration (MIC): –
Micrococcus luteus
  MIC: 8.3 µg/mL (≈ 14.4 µM)
Bacillus subtilis
  MIC: 2.1 µg/mL (≈ 3.66 µM)
Staphylococcus aureus
  MIC: 8.3 µg/mL (≈ 14.4 µM)
Mycobacterium smegmatis
  Minimum inhibitory concentration (MIC): –
Escherichia coli
  Minimum inhibitory concentration (MIC): –
Pseudomonas aeruginosa
  Minimum inhibitory concentration (MIC): –
[3]
  MIC: 66.7 µg/mL (≈ 116 µM)
NCI-H187 and Vero
  Cytotoxicity compared with other xanthoquinodins (in words): stronger cytotoxicity
Cytotoxicity, MTT method; human, A431 squamous cancer cells
  pIC50: 6.80
Cytotoxicity, MTT method; human, A549 lung cancer cells
  pIC50: 5.91
Cytotoxicity, MTT method; human, KB 3.1 endocervical adenocarcinoma cells
  pIC50: 5.97
Cytotoxicity, MTT method; human, MCF-7 breast cancer cells
  pIC50: 7.00
Cytotoxicity, MTT method; human, PC-3 prostate cancer cells
  pIC50: 5.50
Cytotoxicity, MTT method; human, SK-OV-3 ovary cancer cells
  pIC50: 6.33
Cytotoxicity, MTT method; mouse, L929 fibroblasts
  pIC50: 5.33
[4]
  pIC50: 5.33 to 7.00

## C/C(=C\c1csc(C)n1)[C@@H]1C[C@@H]2O[C@]2(C)CCC[C@H](C)[C@H](O)[C@@H](C)C(=O)C(C)(C)[C@@H](O)CC(=O)O1 [epothilon B, reference compound]
Lung cancer A549
  pIC50: 10.05
[5]
  pIC50: 10.52
[6]
  pIC50: 10.52
Prostate cancer PC-3
  pIC50: 10.15
Mouse fibroblasts L929
  pIC50: 9.29
Ovary cancer SK-OV-3
  pIC50: 10.05
[7]
  pIC50: 10.30

## xanthoquinodin JBIR-99
[8]
  Antiproliferative activity (in words): high selective antiproliferative activity
